Assay results taken from patent US8574893B2, “Nucleic acid cleavage complex and method for using the same” (National Cheng Kung University, priority 2010, dated 2013).

Tested on: pST3 test vector
Experiment: DNA cleavage test of the nucleic acid cleavage reagent in vitro
Assay type: biochemical
Experimental: First, the pST3 test vector of Test Example 1 is prepared. The abovementioned vector and the nucleic acid cleavage reagent (Cypate) are mixed in a molar ratio of 1:1000. […] Columns 5 and 6 of FIG. 5 show the position of the nucleic acid cleavage reagent (Cypate) in the gel.

## CC1(C)C(/C=C/C=C/C=C/C=C2/N(CCC(=O)O)c3ccc4ccccc4c3C2(C)C)=[N+](CCC(=O)[O-])c2ccc3ccccc3c21 [Cypate, cypate]
vector:Cypate molar ratio 1:1000, irradiation for 5 mins, FIG. 5 column 8
  cleavage of the plasmid to nicked open-circular plasmid (Form II plasmid): partially cleaved
vector:Cypate molar ratio 1:1000, irradiation for 10 mins, FIG. 5 column 10
  cleavage of the plasmid to nicked open-circular plasmid (Form II plasmid): completely cleaved
